Laboratory results taken from patent EP4722213A1, “NITROGEN-CONTAINING FUNCTIONAL GROUP-SUBSTITUTED PYRIDAZINOPYRIDONE DERIVATIVE AND USE THEREOF” (Sichuan Huiyu Pharmaceutical Co., Ltd., priority 2023, dated 2024).

Biological target: T1, SOS1 (Homo sapiens, UniProt Q07889)
T1 sequence (Q07889 1-1333): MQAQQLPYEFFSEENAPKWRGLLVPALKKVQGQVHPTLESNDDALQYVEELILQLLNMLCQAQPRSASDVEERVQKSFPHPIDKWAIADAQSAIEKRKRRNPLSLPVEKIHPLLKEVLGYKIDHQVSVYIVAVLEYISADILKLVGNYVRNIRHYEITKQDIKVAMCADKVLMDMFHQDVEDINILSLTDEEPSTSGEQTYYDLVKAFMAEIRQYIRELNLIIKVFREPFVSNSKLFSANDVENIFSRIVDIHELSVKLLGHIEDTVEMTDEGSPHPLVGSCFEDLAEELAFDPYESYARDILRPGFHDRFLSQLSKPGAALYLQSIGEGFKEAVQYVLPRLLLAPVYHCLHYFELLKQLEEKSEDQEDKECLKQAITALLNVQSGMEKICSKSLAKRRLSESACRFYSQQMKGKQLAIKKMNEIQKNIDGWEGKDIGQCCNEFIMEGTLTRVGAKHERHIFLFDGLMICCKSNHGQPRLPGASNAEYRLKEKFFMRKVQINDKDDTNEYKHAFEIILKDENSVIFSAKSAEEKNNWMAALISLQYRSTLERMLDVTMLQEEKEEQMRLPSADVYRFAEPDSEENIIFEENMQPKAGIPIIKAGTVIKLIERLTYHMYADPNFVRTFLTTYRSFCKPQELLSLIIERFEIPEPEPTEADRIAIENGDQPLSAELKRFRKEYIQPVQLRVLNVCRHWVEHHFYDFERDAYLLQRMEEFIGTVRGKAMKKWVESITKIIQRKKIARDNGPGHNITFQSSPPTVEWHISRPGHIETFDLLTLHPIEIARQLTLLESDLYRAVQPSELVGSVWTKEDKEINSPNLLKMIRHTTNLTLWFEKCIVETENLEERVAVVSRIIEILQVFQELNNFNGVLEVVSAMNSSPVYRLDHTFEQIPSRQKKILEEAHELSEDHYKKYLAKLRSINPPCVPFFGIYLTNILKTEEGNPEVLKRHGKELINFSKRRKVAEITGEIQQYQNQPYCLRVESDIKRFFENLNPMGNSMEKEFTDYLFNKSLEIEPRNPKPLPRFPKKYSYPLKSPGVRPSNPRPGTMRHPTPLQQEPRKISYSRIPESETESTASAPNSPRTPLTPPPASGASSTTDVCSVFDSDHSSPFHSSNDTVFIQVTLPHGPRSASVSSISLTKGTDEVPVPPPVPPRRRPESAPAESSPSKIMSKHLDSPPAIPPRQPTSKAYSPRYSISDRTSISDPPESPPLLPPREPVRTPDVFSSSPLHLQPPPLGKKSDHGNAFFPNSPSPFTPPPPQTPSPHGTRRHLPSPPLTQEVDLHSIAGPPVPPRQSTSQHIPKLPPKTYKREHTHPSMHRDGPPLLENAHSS
Test: biochemical

`C[C@@H](Nc1nnc(N2CCN(C3CCCC3)CC2)c2cc(=O)n(C3(C)CC3)cc12)c1cccc(C(F)(F)F)c1F` [Example 171, (R)-4-((1-(2-fluoro-3-(trifluoromethyl)phenyl)ethyl)amino)-1-(4-cyclopentylpiperazin-1-yl)-6-(1-methylcyclopropyl) pyrido[3,4-d]pyridazin-7(6H)-one] and `C[C@@H](Nc1nnc(N2CCN(C(C)(C)C)CC2)c2cc(=O)n(C3(C)CC3)cc12)c1cccc(C(F)(F)F)c1F` [Example 172, (R)-4-((1-(2-fluoro-3-(trifluoromethyl)phenyl)ethyl)amino)-1-(4-tert-butylpiperazin-1-yl)-6-(1-methylcyclopropyl) pyrido[3,4-d]pyridazin-7(6H)-one] are within 1.5-fold of each other in IC50: 5 nM for the first, 4.7 nM for the second.

Compared with `Cc1cc(N)cc([C@@H](C)Nc2nnc(N3CCN(C4CC4)CC3)c3cc(=O)n(C4CC4)cc23)c1F` [Example 143, (R)-4-((1-(5-amino-2-fluoro-3-methylphenyl)ethyl)amino)-6-cyclopropyl-1-(4-cyclopropylpiperazin-1-yl)pyrido[3,4-d]pyridazin-7(6H)-one], `Cc1cc(N)cc([C@@H](C)Nc2nnc(N3CCN(C(C)C)CC3)c3cc(=O)n(C4(C)CC4)cc23)c1F` [Example 161, (R)-4-((1-(5-amino-2-fluoro-3-methylphenyl)ethyl)amino)-1-(4-isopropylpiperazin-1-yl)-6-(1-methylcyclopropyl) pyrido[3,4-d]pyridazin-7(6H)-one] is 2.2-fold lower in IC50: 11.5 nM for the first, 5.2 nM for the second.

First: C[C@@H](Nc1nnc(N2CCN(C3CCCC3)CC2)c2cc(=O)n(N3CC4CCCC4C3)cc12)c1cccc(C(F)F)c1F (stereo partly drawn) [Example 140, 4-(((R)-1-(3-(difluoromethyl)-2-fluorophenyl)ethyl)amino)-6-(hexahydrocyclopenta[c]pyrrol-2(1H)-yl)-1-(4-cyclopentylpiperazin-1-yl)-pyrido[3,4-d]pyridazin-7(6H)-one]
Second: C[C@@H](Nc1nnc(N2CCN(C)CC2)c2cc(=O)n(C3CCN(C)CC3)cc12)c1cccc(C(F)F)c1F [Example 223, (R)-4-((1-(3-(difluoromethyl)-2-fluorophenyl)ethyl)amino)-1-(4-methylpiperazin-1-yl)-6-(1-methylpiperidin-4-yl)pyrido[3,4-d]pyridazin-7(6H)-one]
The IC50 of the first is 1.6-fold higher: 8.5 nM for the first, 5.4 nM for the second.

First: C[C@@H](Nc1nnc(N2CCC3(CCCC3)CC2)c2cc(=O)n(C3(C)CC3)cc12)c1cccc(C(F)F)c1F [Example 185, (R)-4-((1-(3-(difluoromethyl)-2-fluorophenyl)ethyl)amino)-6-(1-methylcyclopropyl)-1-(8-azaspiro[4.5]decan-8-yl)pyrido[3,4-d]pyridazin-7(6H)-one]
Second: C[C@@H](Nc1nnc(N2CCC3(CC2)CNC(=O)C3)c2cc(=O)n(C3(C)CC3)cc12)c1cccc(C(F)F)c1F [Example 204, (R)-4-((1-(3-(difluoromethyl)-2-fluorophenyl)ethyl)amino)-6-(1-methylcyclopropyl)-1-(3-oxo-2,8-diazaspiro[4.5]decan-8-yl)pyrido[3,4-d]pyridazin-7(6H)-one]
The IC50 of the first is 11-fold higher: 84.3 nM for the first, 8 nM for the second.

`Cc1c([C@@H](C)Nc2nnc(N3CCN(C(C)(C)C)CC3)c3cc(=O)n(C4(C)CC4)cc23)cccc1C(F)(F)F` [Example 95, (R)-1-(4-(tert-butyl)piperazin-1-yl)-4-((1-(2-methyl-3-(trifluoromethyl)phenyl)ethyl)amino)-6-(1-methylcyclopropyl) pyrido[3,4-d]pyridazin-7(6H)-one] and `Cc1c([C@@H](C)Nc2nnc(N3CCC[C@H]3C)c3cc(=O)n(C4(C)CC4)cc23)cccc1C(F)(F)F` [Example 63, 4-(((R)-1-(2-methyl-3-(trifluoromethyl)phenyl)ethyl)amino)-6-(1-methylcyclopropyl)-1-((R)-2-methylpyrrolidin-1-yl)pyrido[3,4-d]pyridazin-7(6H)-one] are within 1.5-fold of each other in IC50: 6.8 nM for the first, 7.8 nM for the second.

Going from `C[C@@H](Nc1nnc(N2CC(CO)C2)c2cc(=O)n(C3(C)CC3)cc12)c1cccc(C(F)(F)CO)c1` [Example 229, (R)-4-((1-(3-(1,1-difluoro-2-hydroxyethyl)phenyl)ethyl)amino)-1-(3-(hydroxymethyl)azetidin-1-yl)-6-(1-methylcyclopropyl) pyrido[3,4-d]pyridazin-7(6H)-one] to `C[C@@H](Nc1nnc(N2CC(F)(F)C2)c2cc(=O)n(C3(C)CC3)cc12)c1cccc(C(F)F)c1F` [Example 22, (R)-1-(3,3-difluoroazetidin-1-yl)-4-((1-(3-(difluoromethyl)-2-fluorophenyl)ethyl)amino)-6-(1-methylcyclopropyl) pyrido[3,4-d]pyridazin-7(6H)-one], the IC50 rises from 4.5 nM to 16.4 nM (3.6-fold).

`C[C@@H](Nc1nnc(N2CCN(C)C(=O)C2)c2cc(=O)n(C3(C)CC3)cc12)c1cccc(C(F)(F)F)c1F` [Example 174, (R)-4-((1-(2-fluoro-3-(trifluoromethyl)phenyl)ethyl)amino)-1-(4-methyl-3-oxopiperazin-1-yl)-6-(1-methylcyclopropyl) pyrido[3,4-d]pyridazin-7(6H)-one] and `C[C@@H](Nc1nnc(N2CCOCC2)c2cc(=O)n(C3(C)CC3)cc12)c1cccc(C(F)F)c1F` [Example 7, (R)-4-((1-(3-(difluoromethyl)-2-fluorophenyl)ethyl)amino)-6-(1-methylcyclopropyl)-1-morpholinopyrido[3 ,4-d]pyridazin-7(6H)-one] are within 1.5-fold of each other in IC50: 20.2 nM for the first, 17.7 nM for the second.

`C[C@@H](Nc1nnc(-n2nccn2)c2cc(=O)n(C3CC3)cc12)c1cccc(C(F)F)c1F` [Example 32, (R)-6-cyclopropyl-4-((1-(3-(difluoromethyl)-2-fluorophenyl)ethyl)amino)-1-(2H-1,2,3-triazol-2-yl)pyrido[3,4-d]pyridazin-7(6H)-one] and `C[C@@H](Nc1nnc(-n2ccnc2)c2cc(=O)n(C3CC3)cc12)c1cccc(C(F)F)c1F` [Example 31, (R)-6-cyclopropyl-4-((1-(3-(difluoromethyl)-2-fluorophenyl)ethyl)amino)-1-(1H-imidazol-1-yl)pyrido[3,4-d]pyridazin-7(6H)-one] are within 1.5-fold of each other in IC50: 25.5 nM for the first, 19.5 nM for the second.

`CCN(CC)c1nnc(N[C@H](C)c2cccc(C(F)F)c2F)c2cn(C3CC3)c(=O)cc12` [Example 17, (R)-6-cyclopropyl-1-(diethylamino)-4-((1-(3-(difluoromethyl)-2-fluorophenyl)ethyl)amino)pyrido[3,4-d]pyridazin-7(6H)-one] and `CCN(CC)c1nnc(N[C@H](C)c2cccc(C(F)F)c2F)c2cn(C3(C)CC3)c(=O)cc12` [Example 29, (R)-1-(diethylamino)-4-(((R)1-(3-(difluoromethyl)-2-fluorophenyl)ethyl)amino)-6-(1-methylcyclopropyl) pyrido[3,4-d]pyridazin-7(6H)-one] are within 1.5-fold of each other in IC50: 11.2 nM for the first, 10.6 nM for the second.

First: CCN(CC)c1nnc(N[C@H](C)c2cccc(C#N)c2C)c2cn(C3CC3)c(=O)cc12 [Example 40, (R)-3-(1-((6-cyclopropyl-1-(diethylamino)-7-oxo-6,7-dihydropyrido[3,4-d]pyridazin-4-yl)amino)ethyl)-2-methylbenzonitrile]
Second: C[C@@H](Nc1nnc(NC2CCN(C)C2)c2cc(=O)n(C3(C)CC3)cc12)c1cccc(C(F)F)c1F (stereo partly drawn) [Example 126, 4-(((R)-1-(3-(difluoromethyl)-2-fluorophenyl)ethyl)amino)-6-(1-methylcyclopropyl)-1-((1-methylpyrrolidin-3-yl)amino)pyrido[3,4 d]pyridazin-7(6H)-one]
The IC50 of the first is 3.5-fold higher: 32.5 nM for the first, 9.4 nM for the second. The second is the more potent here.
